In patent US11091815B2, “Integrated methods for treating lignocellulosic material” (VIRDIA, LLC, priority 2015, dated 2021):
Read-outs that look alike come from different tables or passages of the source.

Assay: Partition coefficient in a two phase system of water and MEK
Assay type: physicochemical
Method: Water and methylethyl ketone (MEK) were shaken for several minutes to allow saturation of each phase. The phases were separated. An excess amount of fumaric acid was stirred at 40° C. in each phase for 5 hours in a closed container. A sample of the solution was diluted with water and filtered. The concentration of fumaric acid was determined by HPLC by injecting 1-20 μL onto a Bio-Rad Aminex HPX-87H 7.2 mm column, using 0.003 M H2SO4 as eluent, flow rate 0.6 mL/min, temperature 65° C., and an RI detector. The saturated solution was held in a thermostated bath at 25° C., 10° C., 4° C. and 0° C. and allowed to equilibrate at each temperature. A sample of each solution was taken, diluted with water and injected onto the HPLC to determine fumaric acid concentration. Similarly, excess amounts of fumaric acid and Ca(OH)2 were shaken with each phase and the concentration of fumaric acid determined by HPLC in a diluted, filtered sample.
An excess amount of fumaric acid was shaken overnight at 4° C. in a biphasic system of water and MEK. The fumaric acid concentration in each phase was determined by HPLC as described in Example 4. Similarly, excess amounts of both fumaric acid and calcium hydroxide were equilibrated with a biphasic system of water and MEK. The partition coefficient was calculated as:
[formula] K was determined to be 8.6 for fumaric acid and 0.5 for calcium fumarate.

Row | SMILES | partition coefficient K (biphasic system of water and MEK, excess solid shaken overnight at 4° C., concentration in each phase by HPLC, calcium fumarate: excess fumaric acid and calcium hydroxide) | partition coefficient K
1 | O=C([O-])/C=C/C(=O)[O-].[Ca+2] [calcium fumarate] | 0.5 | 
2 | O=C(O)/C=C/C(=O)O [fumaric acid] |  | 8.6
